Here are results for three compounds from patent publication US20050074810A1, “Method for non-invasilvely determining the relative levels of two biological substances” (priority 2001, published 2005).

For data set [1] the following is noted: in vivo, 4 mA for 5 minutes, 4.5 cm^2, lithium nitrate electrolyte; cited from earlier work.
The conditions of data set [2]: subdermal lactate 1.74 mM, ammonium 1.56 mM.
Description: Experiments were performed in specially-designed iontophoresis diffusion cells (Laboratory Glass Apparatus, Berkeley, Calif., USA) as represented in FIG. 7.
The anodal and cathodal chambers contacted the outer surface of the skin and contained the receptor (collection) media, respectively, 80 mM Tris/TrisHCl and 25 mM Tris+34 mM Mops (both buffered to pH 7.4).
Dermatomed pig-ear skin was clamped between the two halves of the iontophoresis cell and each chamber was filled with the appropriate solution.
The sub-dermal chamber was filled with the “donor solution which was perfused continuously at 2-3 mL/hour by means of a peristaltic pump.
A current of 0.4 mA (0.5 mA/cm^2) was passed for a total of 5 hours between the Ag/AgCl electrodes which were inserted into the anodal and cathodal chambers.
Every hour, the entire anode and cathode solutions were withdrawn and the chambers were refilled with fresh buffer.
Data set [3] in a line: In vitro reverse iontophoretic extraction of mannitol and sodium with varied sodium level (Example 4). As to the method: The anode was placed in the sub-dermal, “donor” chamber, which contained a physiological pH 7.4 buffer (25 mM Tris/TrisHCl+4 mM KCl).
Both the concentration of the analyte of interest and the internal standard were modified during the experiment.
(§1) To facilitate the analytical chemistry, the donor solutions were spiked with ^14C-labeled mannitol.
(§2) The cathodal (collection) chamber, which contacted the outer surface of the skin, contained a 25 mM Tris/TrisHCl buffer at pH 7.4.
(§3) During the first 3-hour period, the entire content of the cathode solution was withdrawn every 60 minutes and the chamber was refilled with fresh buffer.
During the final 1-hour period, the donor solution was replaced with 5 mM mannitol/ 133 mM NaCl, and the cathodal chamber was then sampled every 30 minutes.

The conditions of data set [4]: human volunteer, 0.3 mA/cm^2, 5.5 hours, 15 min samples, food ingested.
Description: The distance between the chambers was approximately 8 cm.
The anode was positioned in one of the cells, which was filled with a solution containing a 10 mM Tris buffer pH 8.5+100 mM NaCl.
The other (collection) chamber contained the cathode submerged in a 10 mM Tris buffer at pH 8.5.
The two electrodes were connected to a power supply (Phoresor II Auto, lomed, USA) and a current of 0.6 mA (0.3 mA/cm^2) was passed between them for a total of 5.5 hours.
The entire contents of the cathode solution were withdrawn every 15 minutes and the chamber was then refilled with fresh buffer.
Glucose in each iontophoretic sample was analyzed by high-performance anion-exchange chromatography with pulsed amperometric detection.
The nature of data set [5]: In vitro reverse iontophoretic extraction of mannitol and sodium (Example 3, second experiment). As to the method:
In a second experiment, performed under identical conditions to the first (see FIG. 11), mannitol concentration was 5 mM for the first three hours of experiment, it was then reduced to 3 mM for a subsequent period of one hour and then increased to 10 mM for a subsequent period of one hour.
as §3
During the second 1-hour period, the 5 mM mannitol donor solution was replaced with 3 mM mannitol, and the cathodal chamber was then sampled every 30 minutes.
During the third 1-hour period, the 3 mM mannitol donor solution was replaced with 10 mM mannitol, and the cathodal chamber was then sampled every 30 minutes.

A short description of data set [6]: In vitro reverse iontophoretic extraction of mannitol and sodium (Example 3, first experiment). As to the method:
The anode was placed in the sub-dermal, “donor” chamber, which contained a physiological pH 7.4 buffer (25 mM Tris/TrisHCl+133 mM NaCl) to which the analyte mannitol was added.
In a first experiment, mannitol concentration was 5 mM for the first three hours of experiment and was then increased to 10 mM for a subsequent period of three hours.
as §1
The cathodal (collection) chamber, which contacted the outer surface of the skin contained a 25 mM Tris/TrisHCl buffer at pH 7.4.
as §3
During the second 3-hour period, the 5 mM mannitol donor solution was replaced with 10 mM mannitol, and the cathodal chamber was then sampled every 30 minutes.

Data set [7] can be described thus: In vitro reverse iontophoretic extraction of glucose and sodium (Example 5). It is filed as in vitro ADME, pig. The settings on record: subdermal glucose 10 mM. As to the method: The anode was placed in the sub-dermal, “donor” chamber, which contained a physiological pH 7.4 buffer (25 mM Tris/TrisHCl+133 mM NaCl) to which the analyte glucose was added at a concentration of 10 mM.
To facilitate the analytical chemistry, the donor solutions were spiked with tritiated glucose.
as §2
The experimental design was identical to that in FIG. 11, with the exception that glucose spiked with tritiated glucose replaced mannitol spiked with ^14C-labeled mannitol.
During this period, the entire content of the cathode solution was withdrawn every 60 minutes and the chamber was refilled with fresh buffer.

The mark [8] stands for this setting: subdermal mannitol 5 mM, 60 min.
[9] abbreviates: subdermal mannitol 5 mM, 120 min.
Where [10] appears, read: subdermal mannitol 5 mM, 180 min.
[11] abbreviates: subdermal mannitol 10 mM, 270 min.
Where [12] appears, read: subdermal mannitol 10 mM, 300 min.

Where two headings read alike, the source gives them in different places.

With `[K+]` [K^+, potassium], in data set [1], the “Concentration in the cathode chamber after current passage” value is “about 14 μEq/L”.

Consider `CC(O)C(=O)O` (stereo not shown) [Lactate, lactate], for which, in data set [2] (3 h), the “Deduced transport number (×100)” value is given as 0.59 ± 0.08 ×100; the “Extracted flux ratio (×10^3) relative to K^+” value is given as 149 ± 3.3 ×10^3; the “Extracted flux ratio (×10^3) relative to Na^+” value was 8.7 ± 0.1 ×10^3; the “K for analyte/internal standard couple, internal standard Na^+” value was found to be 0.66 ± 0.01. In addition, in data set [2] (5 h), the “Deduced transport number (×100)” value is listed as 0.56 ± 0.07 ×100; the “Extracted flux ratio (×10^3) relative to K^+” value is 138 ± 15 ×10^3; the “Extracted flux ratio (×10^3) relative to Na^+” value was 7.8 ± 1.1 ×10^3; the “K for analyte/internal standard couple, internal standard Na^+” value worked out at 0.60 ± 0.08.

Regarding `[Na+]` [Na^+, sodium], the “Deduced transport number (×100)” value in data set [2] (3 h) is 67.72 ± 7.98 ×100; in data set [2] (5 h) it was 72.07 ± 1.07 ×100. The “Sodium^+ flux” value came out at 11.2 ± 1.2 μmol · h^−1 · cm^−2 in data set [3] (subdermal [Mannitol]/[Na^+] 5/133 mM (last hour), 330 min); 11.4 ± 0.3 μmol · h^−1 · cm^−2 in data set [3] (subdermal [Mannitol]/[Na^+] 5/133 mM (last hour), 360 min); 8.4 ± 0.8 μmol · h^−1 · cm^−2 in data set [3] (subdermal [Mannitol]/[Na^+] 5/133 mM, 60 min); 10.7 ± 0.4 μmol · h^−1 · cm^−2 in data set [3] (subdermal [Mannitol]/[Na^+] 5/133 mM, 120 min); 11.0 ± 0.3 μmol · h^−1 · cm^−2 in data set [3] (subdermal [Mannitol]/[Na^+] 5/133 mM, 180 min); 10.9 ± 0.7 μmol · h^−1 · cm^−2 in data set [5] (subdermal mannitol 3 mM, 210 min). Further, the “Sodium^+ flux” value in data set [5] (subdermal mannitol 3 mM, 240 min) came out at 9.7 ± 0.5 μmol · h^−1 · cm^−2; in data set [5] (setting [8]), 8.8 ± 0.7 μmol · h^−1 · cm^−2; in data set [5] (setting [9]) it was 10.2 ± 0.7 μmol · h^−1 · cm^−2; in data set [5] (setting [10]), 10.4 ± 0.7 μmol · h^−1 · cm^−2; in data set [5] (setting [11]), 9.4 ± 0.6 μmol · h^−1 · cm^−2; in data set [5] (setting [12]) it was 9.3 ± 0.4 μmol · h^−1 · cm^−2. The “Sodium^+ flux” value in data set [6] (setting [8]) is listed as 7.9 ± 0.5 μmol · h^−1 · cm^−2; in data set [6] (setting [9]), 9.7 ± 0.6 μmol · h^−1 · cm^−2; in data set [6] (setting [10]), 10.1 ± 0.4 μmol · h^−1 · cm^−2; in data set [6] (subdermal mannitol 10 mM, 210 min), 10.3 ± 0.5 μmol · h^−1 · cm^−2; in data set [6] (subdermal mannitol 10 mM, 240 min), 10.4 ± 0.6 μmol · h^−1 · cm^−2; in data set [6] (setting [11]), 10.3 ± 0.4 μmol · h^−1 · cm^−2. Further, the “Sodium^+ flux” value in data set [6] (setting [12]) came to 10.6 ± 0.3 μmol · h^−1 · cm^−2; in data set [6] (subdermal mannitol 10 mM, 330 min), 10.7 ± 0.3 μmol · h^−1 · cm^−2; in data set [6] (subdermal mannitol 10 mM, 360 min), 10.5 ± 0.6 μmol · h^−1 · cm^−2; in data set [7] (60 min), 8.7 ± 0.6 μmol · h^−1 · cm^−2; in data set [7] (120 min), 9.8 ± 0.4 μmol · h^−1 · cm^−2; in data set [7] (180 min), 10.1 ± 0.3 μmol · h^−1 · cm^−2. The results for the “Sodium^+ flux” value in data set [7] (240 min), in data set [7] (300 min) and in data set [7] (360 min) were 10.0 ± 0.3 μmol · h^−1 · cm^−2, 10.2 ± 0.3 μmol · h^−1 · cm^−2 and 10.2 ± 0.3 μmol · h^−1 · cm^−2, respectively. Besides, the “Iontophoretically extracted flux over the experiment” value in data set [4] is “remained effectively constant”. Besides, the “Concentration in the cathode chamber after current passage” value in data set [1] was around 35 μEq/L.
